# Measured values from PubChem BioAssay AID1963957 (Xavier Lab, Infectious Disease and Microbiome Program, …, 2024).
# The source made the active and inactive calls.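 The calls were made as follows: active = significant rise in GFP-LC3 puncta area per cell versus the same autophagy-inducer co-treatment given without compound; inactive = the rest.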
# System: HeLa GFP-LC3 puncta imaging, 4 h
# Experiment: autophagy induction measured as tagged microtubule-associated protein 1 light chain 3 foci, microscopic imaging, green fluorescent protein-light chain 3 HeLa reporter, with rapamycin or Torin1 co-treatment (AID 1963957)
# Settings: for puncta normalized to Torin1: at 20 µM, stronger effect = higher value
Compound,puncta normalized to Torin1 (with Rapamycin),puncta normalized to Torin1 (no co-treatment),puncta normalized to Torin1 (with Torin1),EC50 (no co-treatment),EC50 (with Rapamycin),EC50 (with Torin1)
CO[C@H]1C[C@@H]2CC[C@@H](C)[C@@](O)(O2)C(=O)C(=O)N2CCCC[C@H]2C(=O)O[C@H]([C@H](C)C[C@@H]2CC[C@@H](O)[C@H](OC)C2)CC(=O)[C@H](C)/C=C(\C)[C@@H](O)[C@@H](OC)C(=O)[C@H](C)C[C@H](C)\C=C/C=C/C=C/1C,0.39,–,–,–,–,–
CCC(C)(C)C(=O)C(=O)N1CCCC[C@H]1C(=O)N[C@H](CCc1ccc(OC)cc1)C(=O)N1[C@@H]2CC[C@H]1CC(Nc1nc(NCCc3sc(N)nc3C)nc(NCc3ccnc(CO)c3)n1)C2 (stereo partly specified),1.02,0.14 (inactive),1.59,–,–,–
CCC(C)(C)C(=O)C(=O)N1CCCC[C@H]1C(=O)N[C@H](CCc1ccc(OC)cc1)C(=O)N1CC[C@H](Nc2nc(NCCc3sc(N)nc3C)nc(N(C)Cc3nnc4n3CCC4)n2)C1,0.32 (inactive),-0.05 (inactive),0.72 (inactive),–,–,–
CCC(C)(C)C(=O)C(=O)N1CCCC[C@H]1C(=O)N[C@H](CCc1ccc(OC)cc1)C(=O)N1[C@@H]2CC[C@H]1CC(Nc1nc(NCCc3sc(N)nc3C)nc(NCCn3cnc4ccccc43)n1)C2 (stereo partly specified),1.54,0.49,2.17,–,–,–
CCC(C)(C)C(=O)C(=O)N1CCCC[C@H]1C(=O)N[C@H](CCc1ccc(OC)cc1)C(=O)N1[C@@H]2CC[C@H]1CC(Nc1nc(NCCc3sc(N)nc3C)nc(N(C)Cc3nnc4n3CCC4)n1)C2 (stereo partly specified),0.68 (inactive),0.13 (inactive),0.98 (inactive),–,–,–
CS(C)=O,–,0 (inactive),–,–,–,–
CCC(C)(C)C(=O)C(=O)N1CCCC[C@H]1C(=O)N[C@H](CCc1ccc(OC)cc1)C(=O)N1CC(Nc2nc(NCCc3sc(N)nc3C)nc(NCCn3cnc4ccccc43)n2)C1,0.85,0.06 (inactive),1.47 (inactive),–,–,–
CCC(=O)N1CCN(c2ccc(-n3c(=O)ccc4cnc5ccc(-c6cnc7ccccc7c6)cc5c43)cc2C(F)(F)F)CC1,–,–,1,–,–,–
CCC(C)(C)C(=O)C(=O)N1CCCC[C@H]1C(=O)N[C@H](CCc1ccc(OC)cc1)C(=O)N1[C@@H]2CC[C@H]1CC(Nc1nc(NCCc3sc(N)nc3C)nc(N3CCn4ncnc4C3)n1)C2 (stereo partly specified),–,–,–,12 µM,11.5 µM,29.3 µM
